Experimental data: article PMC5402281, “Functional, thermodynamics, structural and biological studies of in silico-identified inhibitors of Mycobacterium tuberculosis enoyl-ACP(CoA) reductase enzyme” (Scientific Reports, 2017)
Converted amounts (≈) assume the structure as drawn.

Tested on: M. tuberculosis PE-003 multidrug-resistant clinical isolate
Test: microbe, parasite or virus in culture
Format: cell-based
Conditions: Mycobacterium tuberculosis, read-out: MIC PE-003 in μM

Row | SMILES | MIC
1 | CCOC(=O)c1ccc2nc(C)cc(Nc3ccc(N4CCCCC4)cc3)c2c1 [Labio_17] | 2.5 µM (≈ 0.974 µg/mL)
2 | Cc1ccccc1OCc1nc(-c2ccc(NC(=O)c3cccs3)cc2)no1 [Labio_16] | 1.5 µM (≈ 0.587 µg/mL)
